Test results from US9326513B2, “Fungicidal compositions” (Syngenta Participations AG, priority 2011, dated 2016).

Legend:
Assay type in all cases: in vivo
Settings in all cases: foliar, compared to untreated control leaf disks, read-out: disease control
Pyrenophora teres = Pyrenophora teres / barley / leaf disc preventative (net blotch)
Description: Pyrenophora teres/Barley/Leaf Disc Preventative (Net Blotch) Barley leaf segments cv. Hasso were placed on agar in a multiwell plate (24-well format) and sprayed with the formulated test compound diluted in water. The leaf segments were inoculated with a spore suspension of the fungus 2 days after application.

[1] = tested on: Puccinia recondita f. sp. tritici; assay: Puccinia recondita f. sp. tritici / wheat / leaf disc preventative (brown rust)
Description: Puccinia recondita f. sp. tritici/Wheat/Leaf Disc Preventative (Brown Rust) Wheat leaf segments cv. Kanzler were placed on agar in multiwell plates (24-well format) and sprayed with the formulated test compound diluted in water. The leaf disks were inoculated with a spore suspension of the fungus 1 day after application.

[2] = tested on: Blumeria graminis f. sp. tritici (Erysiphe graminis f. sp. tritici); assay: Blumeria graminis f. sp. tritici / wheat / leaf disc preventative (powdery mildew on wheat)
In short: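 Preventative leaf-disc test: compound (200 ppm) was sprayed onto cv. Kanzler wheat segments, which were dusted with conidia from infected plants 1 day after application. After incubation at 20° C and 60% rh, disease control relative to untreated segments was rated 6-8 days after application.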

[3] = tested on: Puccinia recondita f. sp. tritici; assay: Puccinia recondita f. sp. tritici / wheat / leaf disc curative (brown rust)
Description: Puccinia recondita f. sp. tritici/Wheat/Leaf Disc Curative (Brown Rust) Wheat leaf segments cv. Kanzler are placed on agar in multiwell plates (24-well format). The leaf segments are inoculated with a spore suspension of the fungus. Plates were stored in darkness at 19° C. and 75% rh. The formulated test compound diluted in water was applied 1 day after inoculation.

Measured: pest or weed control at 200 ppm

CCN(C)/C=N/c1cc(Br)c(OC2CCC(=C(Cl)Cl)CC2)nc1C (stereo not drawn) [Q.071]
≥ 50%: all assays above

CCN(C)/C=N/c1cc(Br)c(OC2CCS(=O)(=O)CC2)nc1C [Q.161]
≥ 50%: all assays above

CCN(C)/C=N/c1cc(Br)c(OC2CCC(C)=C(C)CC2)nc1C [Q.231]
≥ 50%: all assays above

CCN(C)/C=N/c1cc(Br)c(OCC2CC=CCC2)nc1C (stereo not drawn) [Q.029]
≥ 50%: all assays above

CCN(C)/C=N/c1cc(Br)c(OC2Cc3ccc(Cl)cc3C2)nc1C (stereo not drawn) [Q.233]
≥ 50%: all assays above

CCN(C)/C=N/c1cc(Br)c(OC2CCC(=C(C)C)CC2)nc1C (stereo not drawn) [Q.122]
≥ 50%: all assays above

CCN(C)/C=N/c1cc(Br)c(OC2CCN(C(=O)C(C)C)CC2)nc1C [Q.162]
≥ 50%: all assays above

CCN(C)/C=N/c1cc(Br)c(OC2CCC(C)CC2)nc1C (stereo not drawn) [Q.141]
≥ 50%: all assays above

CCCCOc1nc(C)c(/N=C/N(C)CC)cc1Br [Q.390]
≥ 50%: all assays above

CCCc1cccc(COc2nc(C)c(/N=C/N(C)CC)cc2Br)c1 [Q.346]
≥ 50%: all assays above

CCN(C)/C=N/c1cc(Br)c(OCc2ccc(F)c(F)c2)nc1C [Q.206]
≥ 50%: all assays above

CCN(C)/C=N/c1cc(Br)c(OC2CCc3cc(F)ccc3C2)nc1C (stereo not drawn) [Q.025]
≥ 50%: all assays above

CCN(C)/C=N/c1cc(Br)c(OC2Cc3ccc(OCc4ccccc4)cc3C2)nc1C (stereo not drawn) [Q.168]
≥ 50%: all assays above

CCN(C)/C=N/c1cc(Br)c(OCc2ccccc2S(C)(=O)=O)nc1C [Q.337]
≥ 50%: all assays above

CCc1cc(/N=C/N(C)CC)c(C)nc1OC(C)c1cc(F)cc(F)c1 (stereo not drawn) [Q.228]
≥ 50%: all assays above

C=CCCC(C)Oc1nc(C)c(/N=C/N(C)CC)cc1Br (stereo not drawn) [Q.220]
≥ 50%: all assays above

CCN(C)/C=N/c1cc(Br)c(O[C@H]2CC[C@@H](c3ccccc3)CC2)nc1C [Q.269]
≥ 50%: all assays above

CCN(C)/C=N/c1cc(Br)c(OCc2cccc(Br)c2)nc1C [Q.101]
≥ 50%: all assays above

CCc1cc(/N=C/N(C)CC)c(C)nc1O[C@H]1CC[C@@H](C(C)C)CC1 [Q.251]
≥ 50%: all assays above

CCN(C)/C=N/c1cc(Br)c(OCc2ccc(C(F)(F)F)nc2)nc1C [Q.136]
≥ 50%: all assays above

CCN(C)/C=N/c1cc(Br)c(OC(C)c2ccc3cccnc3c2)nc1C (stereo not drawn) [Q.242]
≥ 50%: all assays above

CCN(C)/C=N/c1cc(Br)c(OCc2cccc(F)c2)nc1C [Q.176]
≥ 50%: all assays above

CCN(C)/C=N/c1cc(Br)c(OC2CCCC(Oc3ccccc3)C2)nc1C (stereo not drawn) [Q.241]
≥ 50%: all assays above

CCN(C)/C=N/c1cc(Br)c(OC2CCC(OC)CC2)nc1C (stereo not drawn) [Q.166]
≥ 50%: all assays above

CCN(C)/C=N/c1cc(I)c(OCc2ccccc2C)nc1C [Q.386]
≥ 50%: all assays above

CCN(C)/C=N/c1cc(Br)c(OC2CCc3ccc(C(C)O)cc3C2)nc1C (stereo not drawn) [Q.044]
≥ 50%: all assays above

CCN(C)/C=N/c1cc(C(F)F)c(O[C@H]2CC[C@@H](C(C)C)CC2)nc1C [Q.247]
≥ 50%: all assays above

CCN(C)/C=N/c1cc(Br)c(OC(C)c2ccccc2)nc1C (stereo not drawn) [Q.102]
≥ 50%: all assays above

CCN(C)/C=N/c1cc(Br)c(OC2CCc3cccc(OC)c3C2)nc1C (stereo not drawn) [Q.024]
≥ 50%: all assays above

CCC(Oc1ccc(/N=C/N(C)C(C)C)c(C)n1)c1cc(C)cc(C)c1 (stereo not drawn) [Q.361]
≥ 50%: all assays above

CCN(C)/C=N/c1cc(Br)c(OC2CCC(C(C)C)CC2)nc1C (stereo not drawn) [Q.334]
≥ 50%: all assays above

CCN(C)/C=N/c1cc(Br)c(OC(C)c2ccc3c(c2)CCCC3)nc1C (stereo not drawn) [Q.238]
≥ 50%: all assays above

CCN(C)/C=N/c1cc(Br)c(OCC(C)c2ccccc2)nc1C (stereo not drawn) [Q.223]
≥ 50%: all assays above
